Converted amounts (≈) assume the structure as drawn.
What was measured:
[1] = system: Mycobacterium tuberculosis; assay: Antibacterial activity against Mycobacterium tuberculosis H37Ra measured after 7 days by resazurin reduction microplate assay; type: functional; conditions: 168 h, time 7 day
[2] = system: Mycobacterium tuberculosis; assay: Antibacterial activity against Mycobacterium tuberculosis IAR2 assessed as reduction in pellet formation measured after 7 to 14 days by alamar blue assay; type: functional; conditions: time 7-14 day
[3] = system: Mycobacterium tuberculosis; assay: Antibacterial activity against Mycobacterium tuberculosis H37Rv assessed as reduction in pellet formation measured after 7 to 14 days by alamar blue assay; type: functional; conditions: time 7-14 day
[4] = system: Mycobacterium tuberculosis; assay: Antibacterial activity against Mycobacterium tuberculosis H37Ra measured after 7 days in presence of rifampicin by resazurin reduction microplate assay based checkerboard assay; type: functional; conditions: 168 h, time 7 day
[5] = target: T1, N-acetyltransferase Eis (Mycobacterium tuberculosis (strain ATCC 25618 / H37Rv), UniProt P9WFK7); assay: Inhibition of Mycobacterium tuberculosis H37Rv Eis protein using kanamycin as substrate preincubated for 10 mins followed by AcCoA addition and measured every 30 secs for 30 mins
T1 sequence (P9WFK7 whole entry): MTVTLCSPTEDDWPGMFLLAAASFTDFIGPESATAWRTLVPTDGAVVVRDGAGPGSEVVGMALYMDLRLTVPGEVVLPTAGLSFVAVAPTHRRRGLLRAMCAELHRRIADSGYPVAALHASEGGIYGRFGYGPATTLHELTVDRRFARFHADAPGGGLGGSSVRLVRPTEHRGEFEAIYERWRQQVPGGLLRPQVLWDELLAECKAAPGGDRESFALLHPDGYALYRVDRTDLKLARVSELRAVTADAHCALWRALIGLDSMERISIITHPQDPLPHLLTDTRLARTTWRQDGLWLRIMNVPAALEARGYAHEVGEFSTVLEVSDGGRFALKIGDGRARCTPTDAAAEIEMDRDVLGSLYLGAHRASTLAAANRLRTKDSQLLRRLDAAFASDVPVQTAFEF

[6] = system: Mycobacterium tuberculosis; assay: Additive antibacterial activity against Mycobacterium tuberculosis H37Ra assessed as fractional inhibitory concentration index at 3 to 50 uM measured after 7 days in presence of moxifloxacin by resazurin reduction microplate assay based checkerboard assay; type: functional; conditions: dose 3-50 µM; time 7 day
[7] = system: Mycobacterium tuberculosis; assay: Antibacterial activity against Mycobacterium tuberculosis H37Ra measured after 7 days in presence of moxifloxacin by resazurin reduction microplate assay based checkerboard assay; type: functional; conditions: 168 h, time 7 day
[8] = system: Mycobacterium tuberculosis; assay: Additive antibacterial activity against Mycobacterium tuberculosis H37Ra assessed as fractional inhibitory concentration index at 3 to 50 uM measured after 7 days in presence of isoniazid by resazurin reduction microplate assay based checkerboard assay; type: functional; conditions: dose 3-50 µM; time 7 day
[9] = system: Mycobacterium tuberculosis; assay: Additive antibacterial activity against Mycobacterium tuberculosis H37Ra assessed as rifampicin MIC at 3 to 50 uM measured after 7 days by resazurin reduction microplate assay based checkerboard assay; type: functional; conditions: 168 h, dose 3-50 µM, time 7 day
[10] = system: Mycobacterium tuberculosis; assay: Additive antibacterial activity against Mycobacterium tuberculosis H37Ra assessed as isoniazid MIC at 3 to 50 uM measured after 7 days by resazurin reduction microplate assay based checkerboard assay; type: functional; conditions: 168 h, dose 3-50 µM, time 7 day
[11] = system: Mycobacterium tuberculosis; assay: Additive antibacterial activity against Mycobacterium tuberculosis H37Ra assessed as fractional inhibitory concentration index at 3 to 50 uM measured after 7 days in presence of rifampicin by resazurin reduction microplate assay based checkerboard assay; type: functional; conditions: dose 3-50 µM; time 7 day
[12] = system: Mycobacterium tuberculosis; assay: Additive antibacterial activity against Mycobacterium tuberculosis H37Ra assessed as fractional inhibitory concentration index at 3 to 50 uM measured after 7 days in presence of ethambutol by resazurin reduction microplate assay based checkerboard assay; type: functional; conditions: dose 3-50 µM; time 7 day
[13] = system: Mycobacterium tuberculosis; assay: Additive antibacterial activity against Mycobacterium tuberculosis H37Ra assessed as moxifloxacin MIC at 3 to 50 uM measured after 7 days by resazurin reduction microplate assay based checkerboard assay; type: functional; conditions: 168 h, dose 3-50 µM, time 7 day
[14] = target: T2, N-acetyltransferase Eis (Mycobacterium tuberculosis (strain ATCC 25618 / H37Rv)) (UniProt P9WFK7); assay: Binding affinity to Mycobacterium tuberculosis H37Rv Eis protein assessed as gibbs free energy
T2 sequence (whole entry): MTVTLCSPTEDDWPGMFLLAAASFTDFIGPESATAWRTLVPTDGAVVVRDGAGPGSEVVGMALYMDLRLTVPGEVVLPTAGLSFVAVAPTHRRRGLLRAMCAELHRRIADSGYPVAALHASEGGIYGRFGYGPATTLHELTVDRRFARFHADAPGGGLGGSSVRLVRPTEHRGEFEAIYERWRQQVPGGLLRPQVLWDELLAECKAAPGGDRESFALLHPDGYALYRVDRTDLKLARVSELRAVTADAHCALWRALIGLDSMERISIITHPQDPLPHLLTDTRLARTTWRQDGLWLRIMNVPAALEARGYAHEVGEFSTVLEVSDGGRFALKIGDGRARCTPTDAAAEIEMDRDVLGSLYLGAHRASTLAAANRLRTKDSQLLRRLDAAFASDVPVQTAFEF

[15] = system: Mycobacterium tuberculosis; assay: Antibacterial activity against Mycobacterium tuberculosis H37Ra measured after 7 days in presence of isoniazid by resazurin reduction microplate assay based checkerboard assay; type: functional; conditions: 168 h, time 7 day
[16] = target: T1, N-acetyltransferase Eis; assay: Competitive inhibition of Mycobacterium tuberculosis H37Rv Eis protein using varying concentrations of kanamycin as substrate assessed as inhibition constant by Lineweaver-Burk plot analysis
[17] = system: Mycobacterium tuberculosis; assay: Antibacterial activity against Mycobacterium tuberculosis H37Ra measured after 7 days in presence of ethambutol by resazurin reduction microplate assay based checkerboard assay; type: functional; conditions: 168 h, time 7 day
[18] = system: Mycobacterium tuberculosis; assay: Additive antibacterial activity against Mycobacterium tuberculosis H37Ra assessed as ethambutol MIC at 3 to 50 uM measured after 7 days by resazurin reduction microplate assay based checkerboard assay; type: functional; conditions: 168 h, dose 3-50 µM, time 7 day
[19] = compound: COc1ccc(C(=O)CSc2nc3ccccc3c(=N)n2-c2ccccc2)cc1; assay: Competitive inhibition of Mycobacterium tuberculosis H37Rv Eis protein using varying concentrations of kanamycin as substrate assessed as Km at 15 uM by Lineweaver-Burk plot analysis (reference value: 448 +/- 99 microM)
[20] = compound: COc1ccc(C(=O)CSc2nc3ccccc3c(=N)n2-c2ccccc2)cc1; assay: Competitive inhibition of Mycobacterium tuberculosis H37Rv Eis protein using varying concentrations of kanamycin as substrate assessed as Vmax at 6.25 uM by Lineweaver-Burk plot analysis (reference value: 119 +/- 11 microM)
[21] = compound: COc1ccc(C(=O)CSc2nc3ccccc3c(=N)n2-c2ccccc2)cc1; assay: Competitive inhibition of Mycobacterium tuberculosis H37Rv Eis protein using varying concentrations of kanamycin as substrate assessed as Vmax at 11 uM by Lineweaver-Burk plot analysis (reference value: 119 +/- 11 microM)
[22] = compound: COc1ccc(C(=O)CSc2nc3ccccc3c(=N)n2-c2ccccc2)cc1; assay: Competitive inhibition of Mycobacterium tuberculosis H37Rv Eis protein using varying concentrations of kanamycin as substrate assessed as Km at 11 uM by Lineweaver-Burk plot analysis (reference value: 448 +/- 99 microM)
[23] = compound: COc1ccc(C(=O)CSc2nc3ccccc3c(=N)n2-c2ccccc2)cc1; assay: Competitive inhibition of Mycobacterium tuberculosis H37Rv Eis protein using varying concentrations of kanamycin as substrate assessed as Km at 6.25 uM by Lineweaver-Burk plot analysis (reference value: 448 +/- 99 microM)
[24] = compound: COc1ccc(C(=O)CSc2nc3ccccc3c(=N)n2-c2ccccc2)cc1; assay: Competitive inhibition of Mycobacterium tuberculosis H37Rv Eis protein using varying concentrations of kanamycin as substrate assessed as Vmax at 15 uM by Lineweaver-Burk plot analysis (reference value: 119 +/- 11 microM)

N#C/C(=C\c1c[nH]c2cccc([N+](=O)[O-])c12)C(=O)NCCCc1ccccc1
MIC [1]: > 200 µM

N#C/C(=C\c1c[nH]c2ccccc12)C(=O)N1CCCC1
MIC [1]: > 200 µM

COC(=O)/C(C#N)=C/c1c[nH]c2ccccc12
MIC [1]: > 200 µM

COc1c(N2C[C@@H]3CCCN[C@@H]3C2)c(F)cc2c(=O)c(C(=O)O)cn(C3CC3)c12 [MOXIFLOXACIN]
MIC [1]: 0.2 µM (≈ 0.0803 µg/mL)

N#C/C(=C\c1c[nH]c2ccccc12)C(=O)NCc1ccccc1
MIC [1]: > 200 µM

N#C/C(=C\c1c[nH]c2ccccc12)C(=O)NCCCc1ccccc1
MIC [1]: > 200 µM

O=C(CSc1nc2sc3c(c2c(=O)n1-c1ccccc1)CCCC3)c1ccc(Cl)c(Cl)c1
MIC [1]: > 200 µM

O=C(CSc1nc2sc3c(c2c(=O)n1Cc1ccccc1)CCCC3)c1cccc(Cl)c1
MIC [1]: > 200 µM

C=CCn1c(SCC(=O)c2ccc(Cl)c(Cl)c2)nc2sc3c(c2c1=O)CCCC3
MIC [1]: > 200 µM

C=CCn1c(SCC(=O)c2ccccc2)nc2ccccc2c1=N
MIC [1]: 200 µM (≈ 67.1 µg/mL)

N#C/C(=C\c1c[nH]c2ccccc12)C(=O)Nc1ccccc1
MIC [1]: > 200 µM

O=C(CSc1nc2ccccc2c(=O)n1-c1ccccc1)c1ccc(Cl)cc1
MIC [1]: 200 µM (≈ 81.4 µg/mL)

COc1ccc(C(=O)CSc2nc3sc4c(c3c(=O)n2-c2ccccc2)CCCC4)cc1
MIC [1]: > 200 µM

CCCCOC(=O)/C(C#N)=C/c1c[nH]c2ccccc12
MIC [1]: > 200 µM

O=C(CSc1nc2sc3c(c2c(=O)n1Cc1ccccc1)CCCC3)c1ccc(Cl)c(Cl)c1
MIC [1]: > 200 µM

C=CCn1c(SCC(=O)c2ccc(OC)cc2)nc2ccccc2c1=N
MIC [1]: > 200 µM

Cc1cc(C)c2c(C(=O)NC3CCCCC3)c[nH]c2c1
MIC [2]: ≥ 250 ng/mL | MIC [3]: 4 ng/mL (≈ 0.0148 µM)

N#CCC(=O)NC(=O)/C(C#N)=C/c1c[nH]c2ccccc12
MIC [1]: > 200 µM

COc1ccc(C(=O)CSc2nc3ccccc3c(=N)n2-c2ccccc2)cc1
MIC [4]: 50 µM | IC50 [5]: 11 µM | fractional inhibitory concentration index (FICI) [6]: 3 | MIC [7]: 50 µM | fractional inhibitory concentration index (FICI) [8]: 2 | MIC [9]: 0.01 µM | MIC [10]: 0.23 µM | fractional inhibitory concentration index (FICI) [11]: 2 | fractional inhibitory concentration index (FICI) [12]: 2 | MIC [13]: 0.4 µM | deltaG [14]: -7.04 kcal/mol | MIC [15]: 50 µM | MIC [1]: 50 µM (≈ 20.1 µg/mL) | Ki [16]: 14.4 µM | MIC [17]: 50 µM | MIC [18]: 8 µM

Cc1ccc2[nH]cc(/C=C(\C#N)C(=O)NCCCc3ccccc3)c2c1
MIC [1]: > 200 µM

Cc1cc(C)c2c(C(=O)NC3CCCCCC3)c[nH]c2c1
MIC [2]: ≥ 250 ng/mL | MIC [3]: 4 ng/mL (≈ 0.0141 µM)

C=CCn1c(SCC(=O)c2ccccc2)nc2ccccc2c1=O
MIC [1]: 200 µM (≈ 67.3 µg/mL)

B1: N-acetyltransferase Eis (Mycobacterium tuberculosis (strain ATCC 25618 / H37Rv)), P9WFK7 (protein)
chain: MTVTLCSPTEDDWPGMFLLAAASFTDFIGPESATAWRTLVPTDGAVVVRDGAGPGSEVVGMALYMDLRLTVPGEVVLPTAGLSFVAVAPTHRRRGLLRAMCAELHRRIADSGYPVAALHASEGGIYGRFGYGPATTLHELTVDRRFARFHADAPGGGLGGSSVRLVRPTEHRGEFEAIYERWRQQVPGGLLRPQVLWDELLAECKAAPGGDRESFALLHPDGYALYRVDRTDLKLARVSELRAVTADAHCALWRALIGLDSMERISIITHPQDPLPHLLTDTRLARTTWRQDGLWLRIMNVPAALEARGYAHEVGEFSTVLEVSDGGRFALKIGDGRARCTPTDAAAEIEMDRDVLGSLYLGAHRASTLAAANRLRTKDSQLLRRLDAAFASDVPVQTAFEF
Km [19]: 632 µM | Vmax [20]: 112 µM/s | Vmax [21]: 108 µM/s | Km [22]: 721 µM | Km [23]: 717 µM | Vmax [24]: 94 µM/s

Reference: ChEMBL document CHEMBL5550169, “A consensus reverse docking approach for identification of a competitive inhibitor of acetyltransferase enhanced intracellular survival protein from Mycobacterium tuberculosis” (Bioorg Med Chem, 2024)
